The target in one assay is T1, NS3-NS4A protease (Hepatitis C virus genotype 1a, UniProt P27958).
T1 construct: Recombinant E. coli or Baculovirus full-length NS3 was diluted to 3.33 μM with assay buffer; made in house; host or cells: E. coli or baculovirus (BV) system
In words: NS3-NS4A protease assay (NS3 inhibition assay, RETS1 substrate), Section B. It is filed as biochemical. Conditions: read-out: NS3-NS4A IC50. An outline of the steps: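 Full-length NS3 (E. coli or baculovirus) precomplexed with excess NS4A-2 peptide, run at 2 nM (E. coli) or 3 nM (BV) NS3; compounds pre-incubated 10 min at room temperature before RETS1 substrate. Fluorescence (ex 335/em 495 nm) read kinetically 30 min; IC50 from four-parameter fit, converted to Ki via Ki=IC50/(1+[S]/Km).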

Assay [1] has as its system HCV sub-genomic replicon, GS4.3. As to the kind of experiment: Quantitation by ELISA of NPTII in the HCV sub-genomic replicon, GS4.3, Section B. The class given is cell-based. The settings on record: Hepatitis C virus; GS4.3 cells, 72 h incubation; read-out: Replicon EC50. An outline of the steps:
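GS4.3 cells (HuH-7 carrying HCV 1377/NS3-3′ replicon) were treated 72 h at 37 °C with inhibitors in 3-fold dilutions, 1% DMSO, no G418. Lysate NPTII was measured by ELISA (TMB, 450 nm). Signal as % of DMSO control; EC50 from 4-parameter fit.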

Broadly, the IC50 is the midpoint of a concentration-inhibition curve. A word on the EC50: it is the concentration giving half of the maximal effect.

T1 sequence (P27958 1027-1657): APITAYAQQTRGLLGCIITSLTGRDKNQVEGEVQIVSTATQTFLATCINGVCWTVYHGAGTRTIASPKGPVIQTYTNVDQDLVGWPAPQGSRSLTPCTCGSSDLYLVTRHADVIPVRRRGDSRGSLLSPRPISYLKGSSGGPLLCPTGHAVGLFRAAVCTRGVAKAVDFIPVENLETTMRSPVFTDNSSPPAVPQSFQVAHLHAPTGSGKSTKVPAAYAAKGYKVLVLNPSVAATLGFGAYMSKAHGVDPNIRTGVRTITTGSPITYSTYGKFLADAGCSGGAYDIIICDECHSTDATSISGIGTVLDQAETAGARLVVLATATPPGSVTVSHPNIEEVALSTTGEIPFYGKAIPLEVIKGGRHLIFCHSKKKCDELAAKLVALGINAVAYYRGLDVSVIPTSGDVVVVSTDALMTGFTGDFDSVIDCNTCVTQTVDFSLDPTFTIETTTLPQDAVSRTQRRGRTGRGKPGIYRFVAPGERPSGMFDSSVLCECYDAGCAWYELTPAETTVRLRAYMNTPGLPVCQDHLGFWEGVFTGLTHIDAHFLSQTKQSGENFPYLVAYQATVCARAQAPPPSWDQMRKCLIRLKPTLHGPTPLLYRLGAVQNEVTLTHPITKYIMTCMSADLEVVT

On to `O=C(NC1CCCC1)N[C@H]1CCCCC/C=C\[C@@H]2C[C@@]2(C(=O)O)NC(=O)[C@@H]2C[C@@H](OC(=O)N3CCc4c(F)cccc4C3)CN2C1=O` [AR00304077, (1S,4R,6S,14S,18R)-14-(3-Cyclopentyl-ureido)-18-(5-fluoro-3,4-dihydro-1H-isoquinoline-2-carbonyloxy)-2,15-dioxo-3,16-diaza-tricyclo[14.3.0.0^4,6]nonadec-7-ene-4-carboxylic acid], for which the IC50 at NS3-NS4A protease was less than 0.1 µM. Further, in assay [1], the EC50 is less than 10 µM.
The like results for `CC(C)(C)OC(=O)N[C@H]1CCCCC/C=C\[C@@H]2C[C@@]2(C(=O)NS(=O)(=O)C2CC2)NC(=O)[C@@H]2C[C@@H](OC(=O)N3Cc4ccccc4C3)CN2C1=O` [AR00294381, (1S,4R,6S,14S,18R)-1,3-Dihydro-isoindole-2-carboxylic acid 14-tert-butoxycarbonylamino-4-cyclopropanesulfonylaminocarbonyl-2,15-dioxo-3,16-diaza-tricyclo[14.3.0.0^4,6]nonadec-7-en-18-yl ester] were, in that order, less than 0.1 µM and less than 0.1 µM.
Regarding `O=C(N[C@H]1CCCCC/C=C\[C@@H]2C[C@@]2(C(=O)O)NC(=O)[C@@H]2C[C@@H](OC(=O)N3Cc4ccccc4C3)CN2C1=O)OC1CCCC1` [AR00304076, (1S,4R,6S,14S,18R)-14-Cyclopentyloxycarbonylamino-18-(1,3-dihydro-isoindole-2-carbonyloxy)-2,15-dioxo-3,16-diaza-tricyclo[14.3.0.0^4,6]nonadec-7-ene-4-carboxylic acid], the half-inhibitory concentration (IC50) on NS3-NS4A protease was less than 0.1 µM. In assay [1], the 50% effective concentration (EC50) is less than 1 µM.
The like results for `CC(C)(C)OC(=O)N[C@H]1CCCCC/C=C\[C@@H]2C[C@@]2(C(=O)O)NC(=O)[C@@H]2C[C@@H](OC(=O)N3Cc4ccc(Cl)cc4C3)CN2C1=O` [AR00315998, (1S,4R,6S,14S,18R)-14-tert-Butoxycarbonylamino-18-(5-chloro-1,3-dihydro-isoindole-2-carbonyloxy)-2,15-dioxo-3,16-diaza-tricyclo[14.3.0.0^4,6]nonadec-7-ene-4-carboxylic acid] were, in that order, less than 1 µM and less than 10 µM.
The matching figures for `CC(C)(C)NC(=O)N[C@H]1CCCCC/C=C\[C@@H]2C[C@@]2(C(=O)O)NC(=O)[C@@H]2C[C@@H](OC(=O)N3Cc4cc(Cl)c(Cl)cc4C3)CN2C1=O` [AR00320450, (1S,4R,6S,14S,18R)-14-(3-tert-Butyl-ureido)-18-(5,6-dichloro-1,3-dihydro-isoindole-2-carbonyloxy)-2,15-dioxo-3,16-diaza-tricyclo[14.3.0.0^4,6]nonadec-7-ene-4-carboxylic acid]: less than 1 µM and less than 10 µM.
As to `O=C(NC1CCCC1)N[C@H]1CCCCC/C=C\[C@@H]2C[C@@]2(C(=O)O)NC(=O)[C@@H]2C[C@@H](OC(=O)N3CCc4cccc(C(F)(F)F)c4C3)CN2C1=O` [AR00304078, (1S,4R,6S,14S,18R)-14-(3-Cyclopentyl-ureido)-2,15-dioxo-18-(8-trifluoromethyl-3,4-dihydro-1H-isoquinoline-2-carbonyloxy)-3,16-diaza-tricyclo[14.3.0.0^4,6]nonadec-7-ene-4-carboxylic acid], the IC50 on NS3-NS4A protease was less than 0.1 µM. Also, in assay [1], the 50% effective concentration (EC50) was less than 1 µM.
In the case of `CC(C)Nc1ccc2c(c1)CN(C(=O)O[C@@H]1C[C@H]3C(=O)N[C@]4(C(=O)NS(=O)(=O)C5CC5)C[C@H]4/C=C\CCCCC[C@H](NC(=O)OC(C)(C)C)C(=O)N3C1)C2` [AR00341649, (1S,4R,6S,14S,18R)-5-Isopropylamino-1,3-dihydro-isoindole-2-carboxylic acid 14-tert-butoxycarbonylamino-4-cyclopropanesulfonylaminocarbonyl-2,15-dioxo-3,16-diaza-tricyclo[14.3.0.0^4,6]nonadec-7-en-18-yl ester], the 50% inhibitory concentration (IC50) at NS3-NS4A protease is less than 0.1 µM. Moreover, in assay [1], the EC50 is less than 0.1 µM.
As for `O=C(NC1CCCC1)N[C@H]1CCCCC/C=C\[C@@H]2C[C@@]2(C(=O)O)NC(=O)[C@@H]2C[C@@H](OC(=O)N3Cc4ccccc4C3)CN2C1=O` [AR00304079, (1S,4R,6S,14S,18R)-14-(3-Cyclopentyl-ureido)-18-(1,3-dihydro-isoindole-2-carbonyloxy)-2,15-dioxo-3,16-diaza-tricyclo[14.3.0.0^4,6]nonadec-7-ene-4-carboxylic acid], on NS3-NS4A protease, the IC50 was less than 0.1 µM. Further, in assay [1], the concentration for a half-maximal effect (EC50) is less than 1 µM.
In the case of `O=C(NC1CCCC1)N[C@H]1CCCCC/C=C\[C@@H]2C[C@@]2(C(=O)NS(=O)(=O)C2CC2)NC(=O)[C@@H]2C[C@@H](OC(=O)N3Cc4ccccc4C3)CN2C1=O` [AR00304082, (1S,4R,6S,14S,18R)-1,3-Dihydro-isoindole-2-carboxylic acid 14-(3-cyclopentyl-ureido)-4-cyclopropanesulfonylaminocarbonyl-2,15-dioxo-3,16-diaza-tricyclo[14.3.0.0^4,6]nonadec-7-en-18-yl ester], the 50% inhibitory concentration (IC50) on NS3-NS4A protease was less than 0.1 µM. In addition, the EC50 in assay [1] was less than 0.1 µM.
Regarding `CC(C)(C)OC(=O)N[C@H]1CCCCC/C=C\[C@@H]2C[C@@]2(C(=O)NS(=O)(=O)C2CC2)NC(=O)[C@@H]2C[C@@H](OC(=O)N3CCc4ccc(Cl)cc4C3)CN2C1=O` [AR00301746, (1S,4R,6S,14S,18R)-7-Chloro-3,4-dihydro-1H-isoquinoline-2-carboxylic acid 14-tert-butoxycarbonylamino-4-cyclopropanesulfonylaminocarbonyl-2,15-dioxo-3,16-diaza-tricyclo[14.3.0.0^4,6]nonadec-7-en-18-yl ester], the IC50 at NS3-NS4A protease is less than 0.1 µM. Also, the EC50 in assay [1] is less than 0.1 µM.
In the case of `CC(C)(C)OC(=O)N[C@H]1CCCCC/C=C\[C@@H]2C[C@@]2(C(=O)NS(=O)(=O)C2CC2)NC(=O)[C@@H]2C[C@@H](OC(=O)N3Cc4ccc(Br)cc4C3)CN2C1=O` [AR00340526, (1S,4R,6S,14S,18R)-5-Bromo-1,3-dihydro-isoindole-2-carboxylic acid 14-tert-butoxycarbonylamino-4-cyclopropanesulfonylaminocarbonyl-2,15-dioxo-3,16-diaza-tricyclo[14.3.0.0^4,6]nonadec-7-en-18-yl ester], the IC50 on NS3-NS4A protease was less than 0.1 µM. For the same compound, the EC50 in assay [1] is less than 0.1 µM.
Consider `O=C(N[C@H]1CCCCC/C=C\[C@@H]2C[C@@]2(C(=O)O)NC(=O)[C@@H]2C[C@@H](OC(=O)N3CCc4ccccc4C3)CN2C1=O)OCCF` [AR00304125, (1S,4R,6S,14S,18R)-18-(3,4-Dihydro-1H-isoquinoline-2-carbonyloxy)-14-(2-fluoro-ethoxycarbonylamino)-2,15-dioxo-3,16-diaza-tricyclo[14.3.0.0^4,6]nonadec-7-ene-4-carboxylic acid], for which the IC50 at NS3-NS4A protease is less than 1 µM. The EC50 in assay [1] is less than 10 µM.
`C[C@H]1CN(C(=O)O[C@@H]2C[C@H]3C(=O)N[C@]4(C(=O)NS(=O)(=O)C5CC5)C[C@H]4/C=C\CCCCC[C@H](NC(=O)OC(C)(C)C)C(=O)N3C2)Cc2ccccc21` [AR00333462, (1S,4R,6S,14S,18R)-4R-Methyl-3,4-dihydro-1H-isoquinoline-2-carboxylic acid 14-tert-butoxycarbonylamino-4-cyclopropanesulfonylaminocarbonyl-2,15-dioxo-3,16-diaza-tricyclo[14.3.0.0^4,6]nonadec-7-en-18-yl ester]: on NS3-NS4A protease, the IC50 was less than 0.1 µM. Also, the EC50 in assay [1] was less than 0.1 µM.
For `O=C(N[C@H]1CCCCCCCC2C[C@@]2(C(=O)NS(=O)(=O)C2CC2)NC(=O)[C@@H]2C[C@@H](OC(=O)N3CCc4ccccc4C3)CN2C1=O)OC1CCCC1` (stereo in doubt) [AR00324375, (1S,4R,6S,14S,18R)-3,4-Dihydro-1H-isoquinoline-2-carboxylic acid 14-cyclopentyloxycarbonylamino-4-cyclopropanesulfonylaminocarbonyl-2,15-dioxo-3,16-diaza-tricyclo[14.3.0.0^4,6]nonadec-18-yl ester], the half-inhibitory concentration (IC50) on NS3-NS4A protease is less than 1 µM. In assay [1], the EC50 was less than 1 µM.
For the compound `CN(C)c1cccc2c1CCN(C(=O)O[C@@H]1C[C@H]3C(=O)N[C@]4(C(=O)NS(=O)(=O)C5CC5)C[C@H]4/C=C\CCCCC[C@H](NC(=O)OC(C)(C)C)C(=O)N3C1)C2` [AR00320120, (1S,4R,6S,14S,18R)-5-Dimethylamino-3,4-dihydro-1H-isoquinoline-2-carboxylic acid 14-tert-butoxycarbonylamino-4-cyclopropanesulfonylaminocarbonyl-2,15-dioxo-3,16-diaza-tricyclo[14.3.0.0^4,6]nonadec-7-en-18-yl ester], at NS3-NS4A protease, the IC50 is less than 0.1 µM. Moreover, the EC50 in assay [1] was less than 0.1 µM.
With `CC(C)(C)OC(=O)N[C@H]1CCCCC/C=C\[C@@H]2C[C@@]2(C(=O)O)NC(=O)[C@@H]2C[C@@H](OC(=O)N3CCc4ccccc43)CN2C1=O` [AR00291875, (1S,4R,6S,14S,18R)-14-tert-Butoxycarbonylamino-18-(2,3-dihydro-indole-1-carbonyloxy)-2,15-dioxo-3,16-diaza-tricyclo[14.3.0.0^4,6]nonadec-7-ene-4-carboxylic acid], the IC50 at NS3-NS4A protease was less than 1 µM. Moreover, in assay [1], the EC50 was less than 10 µM.
As for `Cn1c(C(=O)O)ccc1S(=O)(=O)NC(=O)[C@@]12C[C@H]1/C=C\CCCCC[C@H](NC(=O)OC(C)(C)C)C(=O)N1C[C@H](OC(=O)N3Cc4ccccc4C3)C[C@H]1C(=O)N2` [AR00364266, (1S,4R,6S,14S,18R)-1,3-Dihydro-isoindole-2-carboxylic acid 14-tert-butoxycarbonylamino-4-(5-carboxy-1-methyl-1H-pyrrole-2-sulfonylaminocarbonyl)-2,15-dioxo-3,16-diaza-tricyclo[14.3.0.0^4,6]nonadec-7-en-18-yl ester], the IC50 at NS3-NS4A protease is less than 0.1 µM. For the same compound, the EC50 in assay [1] was less than 1 µM.

(Values after patent US7491794B2, “Macrocyclic compounds as inhibitors of viral replication” (Intermune, Inc., priority 2003, dated 2009).)
